Assay [1] concerns the target T1, aminopeptidase B (Rattus norvegicus, UniProt O09175).
T1 construct: an aminopeptidase B solution purified by using Sephadex G-100; from tissue; rat liver in the cited Hopsu et al. method (own knowledge)
T1 sequence (O09175 1-650): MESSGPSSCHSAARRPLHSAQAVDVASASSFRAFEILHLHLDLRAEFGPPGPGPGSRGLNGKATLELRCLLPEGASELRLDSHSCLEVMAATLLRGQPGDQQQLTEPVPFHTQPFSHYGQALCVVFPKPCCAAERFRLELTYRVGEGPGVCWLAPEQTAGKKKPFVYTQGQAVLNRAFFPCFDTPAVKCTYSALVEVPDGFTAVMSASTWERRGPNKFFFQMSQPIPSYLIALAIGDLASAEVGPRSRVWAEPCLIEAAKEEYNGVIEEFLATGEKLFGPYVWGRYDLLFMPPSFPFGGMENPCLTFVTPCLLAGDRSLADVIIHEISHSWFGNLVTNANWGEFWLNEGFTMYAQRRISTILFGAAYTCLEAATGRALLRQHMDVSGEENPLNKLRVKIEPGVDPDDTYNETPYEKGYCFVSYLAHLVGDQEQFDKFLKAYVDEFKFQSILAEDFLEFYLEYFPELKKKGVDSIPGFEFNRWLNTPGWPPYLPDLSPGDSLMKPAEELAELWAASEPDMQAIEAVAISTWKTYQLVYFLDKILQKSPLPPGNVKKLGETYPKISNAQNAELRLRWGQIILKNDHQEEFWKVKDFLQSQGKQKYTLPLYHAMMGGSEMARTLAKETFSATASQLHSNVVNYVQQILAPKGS
The assay can be described thus: Inhibitory activity against aminopeptidase B (modified Hopsu et al. method, arginine-β-naphthylamide substrate). The settings on record: pH 7.0, 37° C., 30-minute reaction. In kind it is biochemical. As to the method: A modified version of the Hopsu et al. method (V. K. Hopsu, K. K. Makinen and G. G. Glenner, Archives of Biochemistry and Biophysics 114, 557 (1966)) was used for determining the aminopeptidase B activity. A mixed solution (pH 7.0) prepared by adding 1.0 ml of 0.1 M tris-hydrochloride buffer and 0.7 ml of a solution containing the specimen to 0.3 ml of 0.1 mM arginine-β-naphthylamide was heated at 37° C. for 3 minutes and then added with 0.2 ml of an aminopeptidase B solution purified by using Sephadex G-100 (trademark for gelfiltrant composed of dextran derivative, manufactured by Pharmacia Fine Chemicals Inc.) according to the enzyme purification method of Hopsu et al. After 30-minute reaction at 37° C., 0.6 ml of 1.0 M acetate buffer (pH 4.2) containing Garnet GBC (o-aminoazotoluene diazonium salt) in concentration of 1.0 mg/ml and Tween 20 in concentration of 1.0% was added, and allowing the mixture to stand at room temperature for 15 minutes, absorbance (a) at 530 nm was measured. There was also measured absorbance (b) of the control using the buffer solution not containing the specimen. The aminopeptidase B inhibition percent was calculated from (b-a)/b×100.
Inhibition percentages at various specimen concentrations were measured according to the above-said testing method, and 50% inhibition (ID50) was induced therefrom.

Assay [2] relates to lymphocytes from the peripheral blood of healthy canines. The assay can be described thus: Lymphocyte blastoid transformation with phytohemagglutinin (PHA), 3H-Thymidine incorporation. The settings on record: for 3H-Td.eta. incorporation (mean cpm ± SE): PHA + compound, canine lymphocytes, 72 hrs culture; for effect on lymphocyte blastoid formation with PHA (in words): summary of table 2. The assay is classed as cell-based, canines (Beagle, Male). As for the experimental part:
Lymphocytes were prepared asptically from the peripheral blood of healthy canines (Beagle, Male) by gradient centrifugation of ficollsodium metriazoate. The lymphocytes (1×10^6 cells/ml) were cultured in RPMI-1640 medium with 10% fetal calf serum, antibiotic (Kanamycin 60μg/ml) and 15μg of phytohemagglutinin(PHA) at 37° C. in a humidified atomosphere of 5% CO2 and 95% air. After an incubation for 48 hrs, 2μCi of ^3 H-Thymidine was added to each dish, and the culture was continued for further 24 hrs to determine DNA synthesis. DNA synthesis was measured as ^3 H-Thymidine incorporation into acid in soluble materials.

The target in assay [3] is T1, aminopeptidase B. Conditions: prior art; cited from earlier work.
Another assay deals with leucine aminopeptidase. The settings on record: prior art; cited from earlier work.
The target in a further assay is T2, Bleomycin hydrolase (Homo sapiens, UniProt Q13867).
T2 sequence (Q13867 1-455): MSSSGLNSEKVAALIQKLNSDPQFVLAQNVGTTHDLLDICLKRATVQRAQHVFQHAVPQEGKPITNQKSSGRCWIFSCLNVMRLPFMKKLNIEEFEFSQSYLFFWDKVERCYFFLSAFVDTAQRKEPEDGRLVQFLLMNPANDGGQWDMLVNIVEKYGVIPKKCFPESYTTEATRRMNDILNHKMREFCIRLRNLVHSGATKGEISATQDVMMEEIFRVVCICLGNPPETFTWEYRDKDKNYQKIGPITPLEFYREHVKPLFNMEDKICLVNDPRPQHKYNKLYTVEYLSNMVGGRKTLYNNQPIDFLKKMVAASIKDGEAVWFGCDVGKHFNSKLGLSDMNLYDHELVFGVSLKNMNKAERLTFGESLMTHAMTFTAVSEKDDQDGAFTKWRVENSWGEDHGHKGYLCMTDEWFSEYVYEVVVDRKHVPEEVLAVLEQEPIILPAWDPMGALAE
The settings on record: prior art; cited from earlier work.

Here are results for 5 compounds from patent US4185156A, “Peptides and acid addition salts thereof” (Zaidan Hojin Biseibutsu Kagaku Kenkyu Kai, priority 1977, dated 1980).

The structures appear in SMILES notation.

On to `CC(=O)O.CC(=O)O.Cc1ccc(CC(N)C(O)C(=O)NC(CCCN=C(N)N)C(=O)O)cc1` (racemic) [Example 3, (2RS, 3RS)-3-amino-2-hydroxy-4-p-methylphenylbutanoyl-(S)-arginine diacetate], for which the “ID50 (50% inhibition of aminopeptidase B)” value at aminopeptidase B [1] stood at 0.013 μ g/ml.

As to `Cl.Cl.N=C(N)NCCC[C@H](NC(=O)[C@H](O)[C@H](N)Cc1ccccc1Cl)C(=O)O` (racemic) [Example 4, (2RS, 3RS)-3-amino-2-hydroxy-4-o-chlorophenylbutanoyl-(S)-arginine dihydrochloride], the “ID50 (50% inhibition of aminopeptidase B)” value on aminopeptidase B [1] came to 0.14 μ g/ml.

On to `CC(C)C[C@H](NC(=O)[C@@H](O)[C@H](N)Cc1ccccc1)C(=O)O` [Bestatin, (2S, 3R)-3-amino-2-hydroxy-4-phenylbutanoyl-(S)-leucine, reference compound], for which, on aminopeptidase B [1] (read-out: ID50 (50% inhibition of aminopeptidase B) (converted)), the IC50 is 324 nM. Also, the “3H-Td.eta. incorporation (mean cpm ± SE)” value in assay [2] (dose 0.1 μg) is on record as 19450 ± 189 cpm; in assay [2] (dose 1.0 μg) it was 16173 ± 631 cpm; in assay [2] (dose 10.0 μg), 18683 ± 71 cpm. For the same compound, the “effect on lymphocyte blastoid formation with PHA (in words)” value (from here on “effect on lymphocyte blastoid formation”) in assay [2] is “enhance the lymphocyte blastoid formation with PHA”. For the same compound, at aminopeptidase B [3], the “inhibitory activity against aminopeptidase B (in words)” value is “strong inhibitory activity”. Moreover, in the assay with leucine aminopeptidase, the “inhibitory activity against leucine aminopeptidase (in words)” value is given as “strong inhibitory activity”. In addition, the “inhibitory activity against Bleomycin hydrolase (in words)” value at Bleomycin hydrolase is “strong inhibitory activity”.

Turning to `Cl.N=C(N)NCCC[C@H](NC(=O)[C@@H](O)[C@H](N)Cc1ccccc1)C(=O)O` [Example 1, (2S, 3R)-3-amino-2-hydroxy-4-phenylbutanoyl-(S)-arginine hydrochloride], the “ID50 (50% inhibition of aminopeptidase B)” value at aminopeptidase B [1] was 0.03 μ g/ml. For the same compound, the results for the “3H-Td.eta. incorporation (mean cpm ± SE)” value in assay [2] (dose 0.1 μg), in assay [2] (dose 1.0 μg) and in assay [2] (dose 10.0 μg) were 17278 ± 400 cpm, 19940 ± 1412 cpm and 19050 ± 1988 cpm, respectively. Moreover, in assay [2], the “effect on lymphocyte blastoid formation” value is listed as “enhance the lymphocyte blastoid formation with PHA”.

For `N=C(N)NCCC[C@H](NC(=O)[C@@H](O)[C@H](N)Cc1ccc(O)cc1)C(=O)O` [Example 2, (2S, 3R)-3-amino-2-hydroxy-4-p-hydroxyphenylbutanoyl-(S)-arginine diacetate], the “ID50 (50% inhibition of aminopeptidase B)” value on aminopeptidase B [1] amounted to 0.005 μ g/ml. Moreover, the “3H-Td.eta. incorporation (mean cpm ± SE)” value in assay [2] (dose 0.1 μg) is reported as 23113 ± 1236 cpm; in assay [2] (dose 1.0 μg) it was 21357 ± 578 cpm; in assay [2] (dose 10.0 μg), 20397 ± 304 cpm. For the same compound, in assay [2], the “effect on lymphocyte blastoid formation” value was “enhance the lymphocyte blastoid formation with PHA”.
